For the test, the target named is T1, SYK kinase (Homo sapiens, UniProt P43405).
T1 construct: purchased Invitrogen, Carlsbad
The experiment in a line: SYK Assay (OMNIA KINASE ASSAY, SOX peptide fluorescence). It counts as biochemical. Particulars: apparent Ki calculated from the IC50 using the Cheng-Prusoff equation; 1 mM ATP, 30° C.; read-out: SYK Activities: Ki. The method, then:
In the assay OMNIA® KINASE ASSAY by Invitrogen Corporation (Carlsbad) the effect of invention of a compound on the phosphorylation is determined by measurement of fluorescence intensity of a chelation-enhanced fluorophore called SOX. Upon phosphorylation of the peptide by the kinase of interest, Mg2+ is chelated to form a bridge between the SOX moiety and the phosphate group that is transferred to the specific tyrosine on the peptide. The fluorescence intensity is directly proportional to the amount of peptide phosphorylation.
To the wells of an 384 well small volume plate (Greiner, Frickenhausen) are added (i) the compound under test in 5% DMSO/distilled water (2 μl), (ii) 16 μl of the master mix containing ATP, DTT, Kinase Reaction Buffer, Omina Peptide Substrate Tyr 7 resulting in a final concentration of 1 mM ATP, 0.2 mM DTT and 10 μM Peptide Substrate.
The Master Mix and the assay plate was incubated to reaction temperature before the measurement (30° C.). The reaction was started with addition of (iii) 2 μl 4 μg/ml SYK kinase (Invitrogen, Carlsbad). During measurement fluorescence intensitiy readings were collected using a TECAN M1000 at a wavelength of λex 360/λem 485 nm every 30 s for 30 minutes. The reaction velocity was plotted versus the inhibitor concentration to determine the […] using XLFit 5.0 (IDBS, Guildford) to fit to a sigmoidal dose response curve, and the apparent Ki values were calculated from the IC50 using the Cheng-Prusoff equation (Cheng, Y.; Prusoff, W. H. Biochem. Pharmacol. 22, 3099-3108, 1973).
For the compound `c1ccc(-c2nc(Nc3ccc(N4CCCCC4)cc3)c3[nH]ncc3n2)cc1` [Example #3, 5-phenyl-N-(4-(piperidin-1-yl)phenyl)-1H-pyrazolo[4,3-d]pyrimidin-7-amine], the Ki is 10 to 100 nM. As for `NC(=O)c1ccc(Nc2nc(-c3ccccc3)nc3cn[nH]c23)cc1` [Example #11, 4-((5-phenyl-1H-pyrazolo[4,3-d]pyrimidin-7-yl)amino)benzamide], the figure is less than 10 nM. On to `N#Cc1ccc(Nc2nc(-c3ccccc3)nc3cn[nH]c23)cc1` [Example #12, 4-((5-phenyl-1H-pyrazolo[4,3-d]pyrimidin-7-yl)amino)benzonitrile], for which the Ki was 10 to 100 nM.

For `c1cc(-c2nc(Nc3ccc4[nH]ncc4c3)c3[nH]ncc3n2)ccn1` [Example #13, N-(1H-indazol-5-yl)-5-(pyridin-4-yl)-1H-pyrazolo[4,3-d]pyrimidin-7-amine], the Ki is 100 to 1000 nM. As for `c1cc(-c2nc(Nc3ccc(N4CCOCC4)cc3)c3[nH]ncc3n2)ccn1` [Example #19, N-(4-morpholinophenyl)-5-(pyridin-4-yl)-1H-pyrazolo[4,3-d]pyrimidin-7-amine], the figure is 10 to 100 nM; as for `CN1CCC(c2nc(Nc3ccc(Cl)cc3)c3[nH]ncc3n2)CC1` [Example #29, N-(4-chlorophenyl)-5-(1-methylpiperidin-4-yl)-1H-pyrazolo[4,3-d]pyrimidin-7-amine], 10 to 100 nM; as for `c1cc2cn[nH]c2cc1Nc1nc(-c2ccc(N3CCCC3)nc2)nc2cn[nH]c12` [Example #30, N-(1H-indazol-6-yl)-5-(6-(pyrrolidin-1-yl)pyridin-3-yl)-1H-pyrazolo[4,3-d]pyrimidin-7-amine], less than 10 nM. As for `CN(C)c1ccc(Nc2nc(-c3ccc(N4CCCC4)nc3)nc3cn[nH]c23)cc1` [Example #31, N1,N1-dimethyl-N4-(5-(6-(pyrrolidin-1-yl)pyridin-3-yl)-1H-pyrazolo[4,3-d]pyrimidin-7-yl)benzene-1,4-diamine], the figure is less than 10 nM; as for `c1ccc(-c2nc(Nc3cc[nH]n3)c3[nH]ncc3n2)cc1` [Example #38, 5-phenyl-N-(1H-pyrazol-3-yl)-1H-pyrazolo[4,3-d]pyrimidin-7-amine], 10 to 100 nM; as for `c1ccc(-c2nc(Nc3ccc(N4CCCC4)cc3)c3[nH]ncc3n2)cc1` [Example #39, 5-phenyl-N-(4-(pyrrolidin-1-yl)phenyl)-1H-pyrazolo[4,3-d]pyrimidin-7-amine], 100 to 1000 nM. On to `CN1CCC(c2nc(Nc3ccc(N4CCOCC4)cc3)c3[nH]ncc3n2)CC1` [Example #52, 5-(1-methylpiperidin-4-yl)-N-(4-morpholinophenyl)-1H-pyrazolo[4,3-d]pyrimidin-7-amine], for which the Ki is 10 to 100 nM. As for `CN1CCC(c2nc(Nc3ccc(N4CCN(C)CC4)cc3)c3[nH]ncc3n2)CC1` [Example #53, N-(4-(4-methylpiperazin-1-yl)phenyl)-5-(1-methylpiperidin-4-yl)-1H-pyrazolo[4,3-d]pyrimidin-7-amine], the figure is 10 to 100 nM; as for `CN1CCC(c2nc(Nc3ccc4c(c3)NC(=O)CO4)c3[nH]ncc3n2)CC1` [Example #54, 6-((5-(1-methylpiperidin-4-yl)-1H-pyrazolo[4,3-d]pyrimidin-7-yl)amino)-2H-benzo[b][1,4]oxazin-3(4H)-one], less than 10 nM; as for `CN1CCC(c2nc(Nc3cc[nH]n3)c3[nH]ncc3n2)CC1` [Example #55, 5-(1-methylpiperidin-4-yl)-N-(1H-pyrazol-3-yl)-1H-pyrazolo[4,3-d]pyrimidin-7-amine], 100 to 1000 nM.

On to `CN1CCC(c2nc(Nc3ccc(N4CCCC4)cc3)c3[nH]ncc3n2)CC1` [Example #56, 5-(1-methylpiperidin-4-yl)-N-(4-(pyrrolidin-1-yl)phenyl)-1H-pyrazolo[4,3-d]pyrimidin-7-amine], for which the Ki is 100 to 1000 nM. As for `c1csc(-c2nc(Nc3cc(C4CC4)[nH]n3)c3[nH]ncc3n2)c1` [Example #90, N-(5-cyclopropyl-1H-pyrazol-3-yl)-5-(thiophen-2-yl)-1H-pyrazolo[4,3-d]pyrimidin-7-amine], the figure is 10 to 100 nM.

Regarding `CN1CCC(c2nc(Nc3cc(C4CC4)[nH]n3)c3[nH]ncc3n2)CC1` [Example #92, N-(5-cyclopropyl-1H-pyrazol-3-yl)-5-(1-methylpiperidin-4-yl)-1H-pyrazolo[4,3-d]pyrimidin-7-amine], the Ki was 10 to 100 nM.

`CN1CCC(c2nc(Nc3cccc(O)c3)c3[nH]ncc3n2)CC1` [Example #94, 3-((5-(1-methylpiperidin-4-yl)-1H-pyrazolo[4,3-d]pyrimidin-7-yl)amino)phenol]: the Ki was 10 to 100 nM.

With `c1ccc2sc(-c3nc(Nc4ccc5cn[nH]c5c4)c4[nH]ncc4n3)nc2c1` [Example #98, 5-(benzo[d]thiazol-2-yl)-N-(1H-indazol-6-yl)-1H-pyrazolo[4,3-d]pyrimidin-7-amine], the Ki is less than 10 nM. As for `c1cncc(-c2cccc(-c3nc(Nc4cc(C5CC5)[nH]n4)c4[nH]ncc4n3)c2)c1` [Example #100, N-(5-cyclopropyl-1H-pyrazol-3-yl)-5-(3-(pyridin-3-yl)phenyl)-1H-pyrazolo[4,3-d]pyrimidin-7-amine], the figure is 10 to 100 nM; as for `c1cncc(-c2cccc(-c3nc(Nc4ccc(N5CCOCC5)cc4)c4[nH]ncc4n3)c2)c1` [Example #102, N-(4-morpholinophenyl)-5-(3-(pyridin-3-yl)phenyl)-1H-pyrazolo[4,3-d]pyrimidin-7-amine], 10 to 100 nM; as for `c1cncc(-c2cccc(-c3nc(Nc4ccc5c(c4)NCCO5)c4[nH]ncc4n3)c2)c1` [Example #103, N-(5-(3-(pyridin-3-yl)phenyl)-1H-pyrazolo[4,3-d]pyrimidin-7-yl)-3,4-dihydro-2H-benzo[b][1,4]oxazin-6-amine], 10 to 100 nM. As for `c1cncc(-c2cccc(-c3nc(Nc4ccc5cn[nH]c5c4)c4[nH]ncc4n3)c2)c1` [Example #104, N-(1H-indazol-6-yl)-5-(3-(pyridin-3-yl)phenyl)-1H-pyrazolo[4,3-d]pyrimidin-7-amine], the figure is 10 to 100 nM; as for `CN1CCN(c2ccc(Nc3nc(-c4ccccc4O)nc4cn[nH]c34)cc2)CC1` [Example #105, 2-(7-((4-(4-methylpiperazin-1-yl)phenyl)amino)-1H-pyrazolo[4,3-d]pyrimidin-5-yl)phenol], 10 to 100 nM. Regarding `CN1CCN(c2ccc(Nc3nc(-c4cccc(N5CCOCC5)c4)nc4cn[nH]c34)cc2)CC1` [Example #106, N-(4-(4-methylpiperazin-1-yl)phenyl)-5-(3-morpholinophenyl)-1H-pyrazolo[4,3-d]pyrimidin-7-amine], the Ki is 10 to 100 nM. As for `COc1ccc(Nc2nc(-c3cccc(N4CCOCC4)c3)nc3cn[nH]c23)cc1OC` [Example #107, N-(3,4-dimethoxyphenyl)-5-(3-morpholinophenyl)-1H-pyrazolo[4,3-d]pyrimidin-7-amine], the figure is 10 to 100 nM; as for `COc1ccccc1-c1nc(Nc2ccc(N3CCOCC3)cc2)c2[nH]ncc2n1` [Example #112, 5-(2-methoxyphenyl)-N-(4-morpholinophenyl)-1H-pyrazolo[4,3-d]pyrimidin-7-amine], 10 to 100 nM. With `COc1ccccc1-c1nc(Nc2cc(C3CC3)[nH]n2)c2[nH]ncc2n1` [Example #113, N-(5-cyclopropyl-1H-pyrazol-3-yl)-5-(2-methoxyphenyl)-1H-pyrazolo[4,3-d]pyrimidin-7-amine], the Ki is 100 to 1000 nM. As for `N[C@@H]1CCCC[C@H]1Nc1nc(-c2ccsc2)nc2cn[nH]c12` [Example #115, (1R,2R)—N-(5-Thiophen-3-yl-1H-pyrazolo[4,3-d]pyrimidin-7-yl)-cyclohexane-1,2-diamine], the Ki is 100 to 1000 nM. As for `N[C@@H]1CCCC[C@@H]1Nc1nc(-c2ccsc2)nc2cn[nH]c12` [Example #116, (1S,2R)—N-(5-Thiophen-3-yl-1H-pyrazolo[4,3-d]pyrimidin-7-yl)-cyclohexane-1,2-diamine], the figure is 10 to 100 nM; as for `COc1ccc(OC)c(-c2nc(Nc3ccc(OC)c(OC)c3)c3[nH]ncc3n2)c1` [Example #121, 5-(2,5-dimethoxyphenyl)-N-(3,4-dimethoxyphenyl)-1H-pyrazolo[4,3-d]pyrimidin-7-amine], 100 to 1000 nM; as for `CCN1CCN(c2ccc(Nc3nc(-c4cc(OC)ccc4OC)nc4cn[nH]c34)cc2)CC1` [Example #122, 5-(2,5-dimethoxyphenyl)-N-(4-(4-ethylpiperazin-1-yl)phenyl)-1H-pyrazolo[4,3-d]pyrimidin-7-amine], 10 to 100 nM. For the compound `COc1ccc(OC)c(-c2nc(Nc3ccc(N4CCN(C5CC5)CC4)cc3)c3[nH]ncc3n2)c1` [Example #123, N-(4-(4-cyclopropylpiperazin-1-yl)phenyl)-5-(2,5-dimethoxyphenyl)-1H-pyrazolo[4,3-d]pyrimidin-7-amine], the Ki was 10 to 100 nM. In the case of `COc1ccc(Nc2nc(-c3cn4ccccc4n3)nc3cn[nH]c23)cc1OC` [Example #124, N-(3,4-dimethoxyphenyl)-5-(imidazo[1,2-a]pyridin-2-yl)-1H-pyrazolo[4,3-d]pyrimidin-7-amine], the Ki is 10 to 100 nM.

Values taken from patent publication US9802937B2, “Substituted pyrazolo{4,3-D}pyrimidines as kinase inhibitors” (ORIGENIS GMBH, priority 2011, dated 2017).
